# From ChEMBL document CHEMBL1201862, “PubChem BioAssay data set” (2004)
# Activity calls are given as the source filed them.
# Experiments:
# [1] = luciferase reporter signal reduction – luminescence, H4-C neuroglioblastoma cells, dose response (AID 2458); type: functional, cell-based;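 further: H4 neuroglioblastoma cells stably carrying a luciferase reporter gene fusion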
# [2] = inhibitors of SNCA 5'UTR-driven reporter translation, confirmation, H4 neuroglioma cells, luminescence (AID 1988); type: functional, cell-based
# [3] = cytotoxicity in HEK-293T cells, dose response, cytotoxicity control for TCR NF-kB inhibitor project, luminescence, T-cell screen hits (AID 489026); type: functional, cell-based;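 further: cells exposed to compound about 14 hours before the viability readout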
# [4] = inhibitors of SNCA 5'UTR-driven translation, confirmation, luminescence, H4 neuroglioblastoma cells, dose confirmation (AID 2454); type: functional, cell-based;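 further: H4 neuroglioblastoma cells carrying an alpha-synuclein 5'UTR luciferase reporter; potency for inhibition of the luciferase signal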
# [5] = Luminescence Cell-Based Dose Response HTS to Identify Inhibitors of 5'UTR Stem-Loop Driven Prion Protein mRNA Translation in H4 Neuroglioblastoma Cells. [Related pubchem assays: 1827 (Project Summary), 1813 (Primary HTS)]; type: functional
# [6] = cells; type: functional, cell-based
# [7] = inhibitors of firefly luciferase expression or activity, dose response, H4 neuroglioma cells, luminescence (AID 1990); type: functional, cell-based
# [8] = THP-1 cell cytotoxicity, dose response, cytotoxicity control for non-replicating M. tuberculosis project (AID 489025); type: functional
# [9] = Luminescence Cell-Based Dose Retest to Confirm Inhibitors of Cancer Stem Cells. [Related pubchem assays (depositor defined):AID2717, AID2721]; type: functional; conditions: Homo sapiens
# [10] = HepG2 cell cytotoxicity, dose response, cytotoxicity control for non-replicating M. tuberculosis project (AID 489018); type: functional; conditions: Mycobacterium tuberculosis
# [11] = cells; type: functional
# [12] = THP-1 cell cytotoxicity, dose response, cytotoxicity control for Vif-APOBEC3G degradation inhibitor project, THP-1 cells (AID 1117359); type: functional; conditions: Human immunodeficiency virus 1, THP-1
# [13] = molecular target: SUMO-activating enzyme (Homo sapiens, UniProt Q9UBT2); experiment: SUMOylation inhibitor hit validation, confirmation, SUMOylation inhibitor project, biochemical, AlphaScreen (AID 2018); type: functional
# Sequence of SUMO-activating enzyme (Q9UBE0 whole entry): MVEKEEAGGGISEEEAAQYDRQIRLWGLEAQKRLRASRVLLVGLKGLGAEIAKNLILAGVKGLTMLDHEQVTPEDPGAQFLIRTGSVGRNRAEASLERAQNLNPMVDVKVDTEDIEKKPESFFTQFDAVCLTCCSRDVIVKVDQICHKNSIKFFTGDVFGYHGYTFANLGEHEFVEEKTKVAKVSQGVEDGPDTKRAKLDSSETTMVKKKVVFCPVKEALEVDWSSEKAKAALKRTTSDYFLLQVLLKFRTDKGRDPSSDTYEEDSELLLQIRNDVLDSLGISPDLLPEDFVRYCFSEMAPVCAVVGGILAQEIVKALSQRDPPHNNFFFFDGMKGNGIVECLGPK
# Sequence of SUMO-activating enzyme (Q9UBT2 whole entry): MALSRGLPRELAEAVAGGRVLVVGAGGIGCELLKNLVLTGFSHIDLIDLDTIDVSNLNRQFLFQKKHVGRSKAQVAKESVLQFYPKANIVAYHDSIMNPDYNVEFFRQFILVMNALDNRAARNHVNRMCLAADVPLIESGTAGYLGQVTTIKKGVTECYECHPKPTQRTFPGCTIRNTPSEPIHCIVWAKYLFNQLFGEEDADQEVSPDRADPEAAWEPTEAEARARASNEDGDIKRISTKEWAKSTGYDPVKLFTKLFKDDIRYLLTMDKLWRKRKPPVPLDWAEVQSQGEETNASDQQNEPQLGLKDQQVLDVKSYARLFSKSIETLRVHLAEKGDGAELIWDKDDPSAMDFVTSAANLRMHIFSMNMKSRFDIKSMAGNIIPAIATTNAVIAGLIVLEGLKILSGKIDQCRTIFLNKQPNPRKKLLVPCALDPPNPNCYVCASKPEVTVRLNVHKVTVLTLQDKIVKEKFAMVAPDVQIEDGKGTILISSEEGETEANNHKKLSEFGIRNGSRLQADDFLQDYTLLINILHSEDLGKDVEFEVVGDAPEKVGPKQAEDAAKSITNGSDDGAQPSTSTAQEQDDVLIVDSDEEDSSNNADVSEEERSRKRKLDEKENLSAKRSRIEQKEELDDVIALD
# [14] = tested on: BJ; experiment: cytotoxicity toward BJ-TERT fibroblasts, dose response, cell-based, RAS-independent, luminescence (AID 1933); type: functional; conditions: Homo sapiens
# [15] = tested on: BJ; experiment: cells; type: functional, cell-based; conditions: Homo sapiens
# [16] = tested on: BJ; experiment: cytotoxicity toward Ras-transformed BJeLR fibroblasts, dose response, cell-based, alamar blue fluorescence, cherrypicked samples (AID 2631); type: functional; conditions: Homo sapiens;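 further: confirmatory dose-response assay in RAS-dependent BJ fibroblasts engineered with TERT, LT and ST, with cytotoxicity read by fluorescence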
# [17] = tested on: BJ; experiment: cytotoxicity toward BJ-TERT-LT-ST fibroblasts, dose response, cell-based, RAS-independent, luminescence (AID 1935); type: functional; conditions: Homo sapiens;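 further: BJ fibroblasts immortalized with TERT plus LT and ST oncogenes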
# [18] = cytotoxicity toward DRD oncogenic fibroblasts, dose response, cell-based, non-viral oncogenic, luminescence (AID 1934); type: functional; conditions: Homo sapiens
# [19] = molecular target: Intestinal-type alkaline phosphatase (Mus musculus, UniProt P24822); experiment: PubChem AID 488785; type: functional
# Sequence of Intestinal-type alkaline phosphatase (Mus musculus, UniProt P24822) (P24822 whole entry): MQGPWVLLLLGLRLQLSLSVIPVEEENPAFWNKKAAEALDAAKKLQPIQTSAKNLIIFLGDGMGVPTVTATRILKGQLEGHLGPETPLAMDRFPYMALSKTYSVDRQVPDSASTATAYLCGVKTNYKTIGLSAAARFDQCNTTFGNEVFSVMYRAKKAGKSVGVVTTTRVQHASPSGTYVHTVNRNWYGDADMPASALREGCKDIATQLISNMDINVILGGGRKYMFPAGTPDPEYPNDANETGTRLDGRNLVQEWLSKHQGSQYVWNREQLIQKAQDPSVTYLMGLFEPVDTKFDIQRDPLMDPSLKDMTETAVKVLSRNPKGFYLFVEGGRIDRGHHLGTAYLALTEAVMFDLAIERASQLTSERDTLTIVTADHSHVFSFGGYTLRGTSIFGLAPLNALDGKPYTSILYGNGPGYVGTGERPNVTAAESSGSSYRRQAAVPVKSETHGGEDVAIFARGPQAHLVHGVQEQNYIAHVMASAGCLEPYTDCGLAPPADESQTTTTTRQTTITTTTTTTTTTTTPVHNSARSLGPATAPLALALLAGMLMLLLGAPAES
# [20] = molecular target: T1, Alkaline phosphatase, tissue-nonspecific isozyme (Homo sapiens, UniProt P05186); experiment: TNAP enzyme inhibition by screening hits, dose response, selectivity assay for mouse IAP inhibitor project, biochemical, human TNAP, uHTS hits (AID 488906); type: functional
# T1 sequence (P05186 whole entry): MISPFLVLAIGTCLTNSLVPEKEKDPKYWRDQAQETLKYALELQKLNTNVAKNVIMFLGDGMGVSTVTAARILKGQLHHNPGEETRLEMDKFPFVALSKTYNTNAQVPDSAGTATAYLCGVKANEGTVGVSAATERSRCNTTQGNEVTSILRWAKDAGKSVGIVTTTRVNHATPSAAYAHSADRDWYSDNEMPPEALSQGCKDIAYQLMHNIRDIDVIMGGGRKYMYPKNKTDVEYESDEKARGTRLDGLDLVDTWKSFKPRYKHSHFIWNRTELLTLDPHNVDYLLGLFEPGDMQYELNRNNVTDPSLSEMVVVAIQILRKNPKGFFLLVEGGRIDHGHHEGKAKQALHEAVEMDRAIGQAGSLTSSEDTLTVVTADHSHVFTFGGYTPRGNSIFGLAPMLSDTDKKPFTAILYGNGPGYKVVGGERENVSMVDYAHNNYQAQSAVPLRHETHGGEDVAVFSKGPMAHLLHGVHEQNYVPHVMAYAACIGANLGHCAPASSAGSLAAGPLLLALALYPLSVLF
# [21] = molecular target: Intestinal-type alkaline phosphatase (Homo sapiens, UniProt P09923); experiment: inhibition of human intestinal alkaline phosphatase – biochemical, dose response (AID 488876); type: functional
# Sequence of Intestinal-type alkaline phosphatase (Homo sapiens, UniProt P09923) (P09923 whole entry): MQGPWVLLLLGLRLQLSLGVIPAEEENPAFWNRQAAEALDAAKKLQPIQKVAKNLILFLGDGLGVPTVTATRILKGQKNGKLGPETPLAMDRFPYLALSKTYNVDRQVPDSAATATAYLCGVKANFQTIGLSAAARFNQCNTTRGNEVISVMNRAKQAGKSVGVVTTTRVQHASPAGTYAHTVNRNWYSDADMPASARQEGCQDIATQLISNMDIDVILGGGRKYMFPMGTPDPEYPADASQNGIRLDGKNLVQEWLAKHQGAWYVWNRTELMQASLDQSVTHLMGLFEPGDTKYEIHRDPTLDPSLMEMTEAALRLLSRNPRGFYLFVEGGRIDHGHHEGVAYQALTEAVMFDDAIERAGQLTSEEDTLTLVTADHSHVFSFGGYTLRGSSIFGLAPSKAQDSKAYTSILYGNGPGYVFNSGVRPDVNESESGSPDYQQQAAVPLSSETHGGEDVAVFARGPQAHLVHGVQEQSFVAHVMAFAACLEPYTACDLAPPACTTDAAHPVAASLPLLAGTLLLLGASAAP
# [22] = molecular target: DNA dC->dU-editing enzyme APOBEC-3G (Homo sapiens, UniProt Q9HC16); experiment: Dose Response confirmation of small molecule APOBEC3G DNA Deaminase Inhibitors via a fluorescence-based single-stranded DNA deaminase assay. [Related pubchem assays (depositor defined):AID493012, AID493028]; type: functional
# Sequence of DNA dC->dU-editing enzyme APOBEC-3G (Q9HC16 whole entry): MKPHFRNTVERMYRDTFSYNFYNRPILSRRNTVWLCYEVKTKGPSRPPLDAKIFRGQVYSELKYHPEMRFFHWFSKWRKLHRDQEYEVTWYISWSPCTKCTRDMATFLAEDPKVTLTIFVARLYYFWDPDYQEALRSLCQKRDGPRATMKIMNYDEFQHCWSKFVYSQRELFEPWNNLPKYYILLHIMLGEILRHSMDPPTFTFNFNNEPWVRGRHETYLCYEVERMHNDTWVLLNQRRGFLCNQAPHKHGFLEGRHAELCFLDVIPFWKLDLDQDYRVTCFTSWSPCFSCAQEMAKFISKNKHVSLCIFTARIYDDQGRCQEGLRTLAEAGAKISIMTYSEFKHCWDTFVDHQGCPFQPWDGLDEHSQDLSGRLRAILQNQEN
# 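Wherever AC50 is given: cells exposed to compound for roughly 70 hours or longer before luminescence read.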
compound,measurement,setting,value
Cc1cc(NC(=O)CSc2nc3ccccc3c(=O)n2C2CCCC2)no1,EC50,[1],1500 nM (active)
same,EC50,[2],< 100 nM (active)
same,IC50,[3],> 80000 nM (inactive)
same,EC50,[4],1890 nM (inconclusive)
same,EC50,[5],< 100 nM (active)
same,EC50,[6],> 12000 nM (not active)
same,EC50,[7],4730 nM (inconclusive)
CCC(C)NCCOc1ccc(C(C)(C)c2ccccc2)cc1 (stereo unspecified),CC50,[8],27600 nM (active)
same,AC50,[9],1630 nM (active)
same,CC50,[10],19500 nM (active)
same,IC50,[11],11700 nM (active)
O=C(CCCN1C(=O)/C(=C\c2ccco2)SC1=S)Nc1cccc2ccccc12,CC50,[12],29000 nM (active)
CCOC(=O)c1c(NC(=O)CCN2CCOCC2)sc(C)c1-c1ccccc1,CC50,[12],> 40000 nM (active)
O=C(Nc1ccncc1)C1CCN(S(=O)(=O)c2c(Cl)cccc2Cl)CC1,CC50,[12],> 40000 nM (active)
O=C1N(c2ccc(Cl)c(Cl)c2)CN(Cc2ccccc2)CN1n1cnnc1,IC50,[13],> 100000 nM (inactive)
COc1ccccc1N1CCN(C(=O)c2cc(=O)c3cc(C)cc(C)c3o2)CC1,EC50,[1],289 nM (active)
same,EC50,[14],346 nM (active)
same,EC50,[15],938 nM (active)
same,EC50,[16],< 104 nM (active)
same,EC50,[2],< 100 nM (active)
same,EC50,[17],229 nM (inconclusive)
same,IC50,[3],> 80000 nM (inactive)
same,EC50,[4],259 nM (active)
same,EC50,[5],127 nM (active)
same,EC50,[6],415 nM (active)
same,EC50,[18],375 nM (active)
same,EC50,[7],101 nM (active)
COc1ccc(C2CC(c3ccccc3Cl)=NN2c2ccc(S(N)(=O)=O)cc2)cc1 (stereo unspecified),IC50,[19],6020 nM (active)
same,IC50,[20],> 100000 nM (inactive)
same,IC50,[21],> 100000 nM (inactive)
O=C(Cc1ccc(Cl)cc1Cl)Nc1cccc(S(=O)(=O)Nc2ccccc2F)c1,IC50,[22],29400 nM (active)
